# Literature values as cited in PMC4287963 (Inorganic chemistry, 2009).
# Conditions: Cu(II) complex of TETA; cited from earlier work
structure (smiles),measurement,value
O=C(O)CN1CCCN(CC(=O)O)CCN(CC(=O)O)CCCN(CC(=O)O)CC1 [TETA],thermodynamic formation constant log K,21.9
